Results published in US8729279B2, “Agent for promoting osteoblast differentiation, pharmaceutical composition for promoting bone formation, and food for special dietary use containing auraptene analog as active ingredient” (Erina Co., Inc., priority 2010, dated 2014).

Experiments:
RAW264 cells [1] = assay: Cell number (MTT) in osteoclast differentiation culture; format: cell-based, mouse; conditions: RANKL 50 ng/ml, 3 days, FIG. 7 open bars
Procedure: (§1) RAW264 cells were suspended in α-MEM and plated in a 96-well microplate at a concentration of 3×10^3 cells/well. The compounds of the present invention at each concentration and the osteoclast differentiation-inducing factor (RANKL) were added at 50 ng/ml and the cells were cultured for 3 days in an incubator at 37° C. and 5% CO2. After incubation, the cells were fixed with a 10% formalin solution and refixed with 100% ethanol.
In addition, after similarly cultured, the cells were counted by a conventional method using a MTT reagent, and the value calculated by taking the control as 100 was shown.

[2] = system: Postmenopausal osteoporosis model mice; assay: Bone formation-promoting effect in vivo, ovariectomized mice, femur pQCT; set-up: species or system mouse; conditions: OVX mice, 50 mg/kg/day oral, 30+30 days, versus OVX-Con
Procedure: Postmenopausal osteoporosis model mice were prepared by ovariectomy and test compounds were administrated to the mice with decreased bone mass, to examine the effects on bone formation in vivo level.
Slc; ddY mice (4 week-old, female) were purchased from Chubu Kagaku Shizai Co., Ltd. After 2 days, ovariectomy (“OVX”) or sham operation (“Sham”) was performed under Nembutal anesthesia. After the mice were bred for 1 month in order to decrease bone mass due to the progression in bone resorption, a part of mice in each group (OVX: N=5, Sham: N=3) were killed to collect the femurs. The rest of mice in the ovariectomy (“OVX”) group were divided into two groups: solvent administration group (“OVX-Con”: N=6) and auraptene administration group (50 mg/kg/day, oral administration, “OVX-AUR”: N=6) and bred for another month together with the sham operation group (Sham-Con: N=6). Thereafter, the mice were killed to collect the femurs.
The bone mineral content density and the like of the collected femurs were measured by means of pQCT (peripheral Quantitative Computed Tomography) using a bone density measuring apparatus (trade name “XCT Research SA+”, manufactured by Stratec Medizintechnik GmbH).

MC3T3-E1 cells [3] = assay: Initial osteoblast differentiation, alkaline phosphatase (ALP) activity; format: cell-based, mouse; conditions: compound 1-100 μM, 6 days; FIG. 2 solid bars
Procedure: (§2) MC3T3-E1 cells which are mouse pre-osteoblastic cells were suspended in α-MEM and plated on each well of a 96-well microplate at a concentration of 5×10^3 cells/well. After 2-day pre-incubation in 10% FBS-containing α-MEM under a condition of 37° C. and 5% CO2, the culture medium was replaced with 10% FBS-containing α-MEM containing a compound at a concentration of 1, 3, 10, 30 or 100 μM and the cells were cultured for 6 days. During the incubation, the culture medium was replaced once in every 3 days. The cells cultured in the same manner using the medium without coumarin compounds were used as a control.
(§3) In addition, the activity of alkaline phosphatase (ALP), a marker enzyme of initial osteoblast differentiation, was measured by the following method. After incubation, the cells were fixed with cold methanol, and the dishes were dried. 100 μl of buffer of pH 8.5 containing 2 mM magnesium chloride and 100 mM Tris-HCl, with 6.7 mM p-nitrophenylphosphate as a substrate, was dispensed in each well and allowed to react at 37° C. for 30 minutes. Then, 100 μl of 0.1 N sodium hydroxide was added to terminate the reaction, followed by measurement with a plate reader of the absorbance at 405 nm, which was determined to be the ALP activity. The value was calculated by taking the control as 100.

RAW264 cells [4] = assay: Osteoclast differentiation, TRAP activity; format: cell-based, mouse; conditions: RANKL 50 ng/ml, 3 days; FIG. 7 solid bars
Procedure: RAW264 cells (mouse monocyte/macrophage cell line, cell No. RCB0535) were purchased from RIKEN Cell Bank. The osteoclast differentiation-inducing factor (RANKL) was obtained from Wako Pure Chemical Industries, Ltd. Others used were the same as above.
as §1
After the dishes were dried, as an index of differentiation, the activity of tartrate-resistant acid phosphatase (TRAP), a marker enzyme of osteoclasts, was measured by the following method.
For measurement of the TRAP activity, a buffer containing 10 mM tartrate and 50 mM citrate of pH 4.6, with 3.7 mM p-nitrophenylphosphate as a substrate, was used. […] Thereafter, 100 μl of 0.1 N sodium hydroxide was added to terminate the reaction, followed by measurement of the absorbance at 405 nm with a plate reader. Each absorbance was determined to be the TRAP activity, and the value calculated by taking control as 100 was shown.

MC3T3-E1 cells [5] = assay: Osteoblast calcification, alizarin red S staining; format: cell-based, mouse; conditions: compared with control
Procedure: 3. Effects on Osteoblast Calcification MC3T3-E1 cells were suspended in α-MEM and plated in each well of a 96-well microplate at a concentration of 5×10^3 cells/well and pre-incubated for 2 days in 10% FBS-containing α-MEM under a condition of 37° C. and 5% CO2. Thereafter, the culture medium was replaced with 10% FBS-containing α-MEM containing a compound at a concentration of 1, 3, 10 or 30 μM, 50 μg/ml ascorbic acid and 10 mM β-glycerophosphoric acid, and the cells were cultured for 10 days. During the incubation, the culture medium was changed once in every 3 or 4 days.
After incubation, the cells were fixed with 70% ethanol, the dishes were dried, and calcium deposits were stained with a 1% alizarin red S solution. The image of the stained plate was obtained using a scanner. In addition, the degree of stain (degree of calcification) was evaluated by naked eyes.

MC3T3-E1 cells [6] = assay: Expression of genes related to osteoblast differentiation, real-time RT-PCR; format: cell-based, mouse; conditions: compared with control
Procedure: The effects on the expression of various genes related to osteoblast differentiation were analyzed using the real-time RT-PCR method.
MC3T3-E1 cells were plated in each well of a 6-well plate (Greiner) at a concentration of 1.5×10^5 cells/well and cultured in the same manner as above. […] After incubation, the culture medium was removed and the cells were washed with PBS. Thereafter, “ISOGEN” (trade name, Wako Pure Chemical Industries, Ltd.) was added in an amount of 1 ml/well and the cells were collected. RNA purification was conducted according to the protocol described in the package insert of “ISOGEN”.
Reverse transcription was performed using “PrimeScript RT-PCR Kit” (trade name, TaKaRa) with 2 μg of purified RNA according to the protocol described in the package insert, thereby synthesizing the cDNA sample.
Real-time PCR was performed using “FastStart Universal SYBR Green Master (Rox)” (trade name, Roche) according to the protocol described in the package insert under the following conditions: incubation at 50° C. for 2 min and at 95° C. for 10 min, followed by 50 cycles of 15 sec at 95° C. and 1 min at 60° C. Data were analyzed with “ABI PRISM 7300 sequence detection system” (trade name, Applied Biosystems).
Primers used were as described in the following Table 2.
Data analysis was performed as follows using β-actin as an endogenous control gene by the comparative Ct method.
Δ Ct=(Ct of target gene)−(Ct of endogenous control gene)
ΔΔ Ct=(Δ Ct of target sample)−(Δ Ct of reference sample)
Relative expression level of target gene of target sample to that of reference sample=2 (^−ΔΔ^Ct)

MC3T3-E1 cells [7] = assay: Effect on osteoblast proliferation (MTT); format: cell-based, mouse; conditions: compound 1, 3, 10 or 30 μM, 3 days, FIG. 1
Procedure: The effect on osteoblast proliferation was determined by the following method.
MC3T3-E1 cells were suspended in α-MEM and plated on each well of a 96-well microplate at a concentration of 2×10^3 cells/well. After overnight incubation in 10% fetal bovine serum (FBS)-containing α-MEM under a condition of 37° C. and 5% CO2, the culture medium was replaced with 10% FBS-containing α-MEM containing a compound at a concentration of 1, 3, 10 or 30 μM and cultured for 3 days. The cells cultured in the same manner using the medium containing the same amount of solvent only were used as a control.
Added was 3-(4,5-Dimethylthiazol-2-yl)-2,5-diphenyltetrazolium bromide (MTT) (5 mg/ml in PBS) in one-tenth amount of the culture medium 2 hours before the completion of incubation. After 2-hour cultivation, the medium was removed, formazan formed by viable cells was dissolved in DMSO and the absorbance at 570 nm (reference wavelength of 630 nm) was measured with a plate reader. The relative cell numbers were determined by calculating the values taking the control as 100 (average plus or minus standard deviation of 4 wells or more; the same hereinafter).

MC3T3-E1 cells [8] = assay: Cell number (MTT) in initial osteoblast differentiation culture; format: cell-based, mouse; conditions: compound 1-100 μM, 6 days, FIG. 2 open bars
Procedure: as §2
At the end of incubation, the cell number was measured by the same method as above using a MTT reagent and the value was calculated by taking the control as 100.

MC3T3-E1 cells [9] = assay: Comparison with BMP-2 and effect of BMP signal inhibitors on ALP activity; format: cell-based, mouse; conditions: 6 days
Procedure: as §3
Upon the addition of the sample, the cells were cultured for 6 days in the presence or absence of 10 ng/ml Noggin, a BMP inhibitor, or 1 μM Dorsomorphin, an inhibitor of type I BMP receptor (ALK) (the above concentrations are the final concentrations), and the ALP activities were measured in the same manner as above.

Compound: CC(C)=CCC/C(C)=C/COc1ccc2ccc(=O)oc2c1 [auraptene, 2H-1-benzopyran-2-one, 7-[[(2E)-3,7-dimethyl-2,6-octadiene-1-yl]oxy]-]
- cell number of RAW264 cells (control as 100) (RAW264 cells [1]): did not show a significant influence
- trabecular bone mineral density ([2]; FIG. 6A): tended to be high
- total bone mineral density ([2]; FIG. 6B): tended to be high
- cortical bone periosteal circumference ([2]; FIG. 6C): tended to be long
- cortical bone endosteal circumference ([2]; FIG. 6D): tended to be long
- ALP activity (control as 100) (MC3T3-E1 cells [3]): increased in a concentration-dependent manner
- TRAP activity as an index of osteoclast differentiation (RAW264 cells [4]): do not affect osteoclast differentiation
- calcified portions stained red (MC3T3-E1 cells [5]): remarkably increased compared with control
- expression of ALP gene (MC3T3-E1 cells [6]; auraptene 30 μM or BMP-2 50 ng/ml, FIG. 5A): increased
- expression of osteocalcin gene (MC3T3-E1 cells [6]; auraptene 30 μM or BMP-2 50 ng/ml, FIG. 5B): increased
- expression of Runx 2 gene (MC3T3-E1 cells [6]; auraptene 30 μM or BMP-2 50 ng/ml, FIG. 5C): increased
- expression of Osterix gene (MC3T3-E1 cells [6]; auraptene 30 μM or BMP-2 50 ng/ml, FIG. 5D): increased
- expression of BMP-2 gene (MC3T3-E1 cells [6]; auraptene 30 μM, FIG. 5E): increased
- expression of BMP-4 gene (MC3T3-E1 cells [6]; auraptene 30 μM, FIG. 5F): increased
- cell number of MC3T3-E1 cells (relative, control as 100) (MC3T3-E1 cells [7]): little change in cell number
- cell viability of MC3T3-E1 cells (control as 100) (MC3T3-E1 cells [8]): little influence on cell viability
- effect of promoting ALP activity in presence of Dorsomorphin (MC3T3-E1 cells [9]; Dorsomorphin 1 μM, auraptene 30 μM or BMP-2 25 ng/ml): diminished
- effect of promoting ALP activity in presence of Noggin (MC3T3-E1 cells [9]; Noggin 10 ng/ml, auraptene 30 μM or BMP-2 25 ng/ml): diminished
- effect of promoting ALP activity (MC3T3-E1 cells [9]; auraptene 30 μM versus BMP-2 25 ng/ml, FIG. 4): equivalent to or more than that with BMP-2 (25 ng/ml)
